From US10806785B2, “Immunomodulator compounds and methods of use” (Incyte Corporation, priority 2016, dated 2020)

Molecular target: PD-1/PD-L1 (Homo sapiens (Human), UniProt Q9NZQ7)
Test: PD-1/PD-L1 binding assay (HTRF)
Procedure: The assays were conducted in a standard black 384-well polystyrene plate with a final volume of 20 μL. Inhibitors were first serially diluted in DMSO and then added to the plate wells before the addition of other reaction components. The final concentration of DMSO in the assay was 1%. The assays were carried out at 25° C. in the PBS buffer (pH 7.4) with 0.05% Tween-20 and 0.1% BSA. Recombinant human PD-L1 protein (19-238) with a His-tag at the C-terminus was purchased from AcroBiosystems (PD1-H5229). Recombinant human PD-1 protein (25-167) with Fc tag at the C-terminus was also purchased from AcroBiosystems (PD1-H5257). PD-L1 and PD-1 proteins were diluted in the assay buffer and 10 μL was added to the plate well. Plates were centrifuged and proteins were preincubated with inhibitors for 40 minutes. The incubation was followed by the addition of 10 μL of HTRF detection buffer supplemented with Europium cryptate-labeled anti-human IgG (PerkinElmer-AD0212) specific for Fc and anti-His antibody conjugated to SureLight®-Allophycocyanin (APC, PerkinElmer-AD0059H). After centrifugation, the plate was incubated at 25° C. for 60 min. before reading on a PHERAstar FS plate reader (665 nm/620 nm ratio). Final concentrations in the assay were […], 10 nM PD-L1, 1 nM europium anti-human IgG and 20 nM anti-His-Allophycocyanin. IC50 determination was performed by fitting the curve of percent control activity versus the log of the inhibitor concentration using the GraphPad Prism 5.0 software.

Chain of PD-1/PD-L1 (Q9NZQ7 19-238): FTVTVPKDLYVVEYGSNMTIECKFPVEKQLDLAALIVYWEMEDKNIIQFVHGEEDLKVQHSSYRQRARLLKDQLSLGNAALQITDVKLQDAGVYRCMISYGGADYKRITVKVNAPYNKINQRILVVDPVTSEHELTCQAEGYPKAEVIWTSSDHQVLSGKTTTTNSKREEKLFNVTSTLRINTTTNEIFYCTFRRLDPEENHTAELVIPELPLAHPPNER

Row | SMILES | IC50 [nM]
1 | CC(C)N1CCc2c(nc(C(=O)Nc3cccc(-c4cccc(NC(=O)c5nc6c(n5C)CCN(CC57CCC(C(=O)O)(CC5)C7)C6)c4Cl)c3Cl)n2C)C1 [Compound 177, 4-((2-(2,2′-dichloro-3′-(5-isopropyl-1-methyl-4,5,6,7-tetrahydro-1H-imidazo[4,5-c]pyridine-2-carboxamido)biphenyl-3-ylcarbamoyl)-1-methyl-6,7-dihydro-1H-imidazo[4,5-c]pyridin-5(4H)-yl)methyl)bicyclo[2.2.1]heptane-1-carboxylic acid] | ≤ 10
2 | Cn1c(C(=O)Nc2cccc(-c3cccc(NC(=O)c4nc5c(n4C)CCN(C4CCC4)C5)c3Cl)c2Cl)nc2c1CCN(CC13CCC(C(=O)O)(CC1)C3)C2 [Compound 178, 4-((2-(2,2′-dichloro-3′-(5-cyclobutyl-1-methyl-4,5,6,7-tetrahydro-1H-imidazo[4,5-c]pyridine-2-carboxamido)biphenyl-3-ylcarbamoyl)-1-methyl-6,7-dihydro-1H-imidazo[4,5-c]pyridin-5(4H)-yl)methyl)bicyclo[2.2.1]heptane-1-carboxylic acid] | ≤ 10
3 | Cn1c(C(=O)Nc2cccc(-c3cccc(NC(=O)c4nc5c(n4C)CCN(C4CCOCC4)C5)c3Cl)c2Cl)nc2c1CCN(CC13CCC(C(=O)O)(CC1)C3)C2 [Compound 179, 4-((2-(2,2′-dichloro-3′-(1-methyl-5-(tetrahydro-2H-pyran-4-yl)-4,5,6,7-tetrahydro-1H-imidazo[4,5-c]pyridine-2-carboxamido)biphenyl-3-ylcarbamoyl)-1-methyl-6,7-dihydro-1H-imidazo[4,5-c]pyridin-5(4H)-yl)methyl)bicyclo[2.2.1]heptane-1-carboxylic acid] | 10 to 100
4 | Cn1c(C(=O)Nc2cccc(-c3cccc(NC(=O)c4nc5c(n4C)CCN(CC46CCC(C(=O)O)(CC4)C6)C5)c3Cl)c2Cl)nc2c1CCN(CCO)C2 [Compound 180, 4-((2-(2,2′-dichloro-3′-(5-(2-hydroxyethyl)-1-methyl-4,5,6,7-tetrahydro-1H-imidazo[4,5-c]pyridine-2-carboxamido)biphenyl-3-ylcarbamoyl)-1-methyl-6,7-dihydro-1H-imidazo[4,5-c]pyridin-5(4H)-yl)methyl)bicyclo[2.2.1]heptane-1-carboxylic acid] | ≤ 10
5 | C[C@H](O)CN1CCc2c(nc(C(=O)Nc3cccc(-c4cccc(NC(=O)c5nc6c(n5C)CCN(C)C6)c4Cl)c3Cl)n2C)C1 [Example 27, (S)—N-(2,2′-dichloro-3′-(1,5-dimethyl-4,5,6,7-tetrahydro-1H-imidazo[4,5-c]pyridine-2-carboxamido)biphenyl-3-yl)-5-(2-hydroxypropyl)-1-methyl-4,5,6,7-tetrahydro-1H-imidazo[4,5-c]pyridine-2-carboxamide] | ≤ 10
6 | Cc1c(NC(=O)c2nc3c(n2C)CCN(C2CCN(S(C)(=O)=O)CC2)C3)cccc1-c1cccc(NC(=O)c2nc3c(n2C)CCN(C)C3)c1Cl [Example 28, N-(2-chloro-2′-methyl-3′-(1-methyl-5-(1-(methylsulfonyl)piperidin-4-yl)-4,5,6,7-tetrahydro-1H-imidazo[4,5-c]pyridine-2-carboxamido)biphenyl-3-yl)-1,5-dimethyl-4,5,6,7-tetrahydro-1H-imidazo[4,5-c]pyridine-2-carboxamide] | ≤ 10
7 | Cc1c(NC(=O)c2nc3c(n2C)CCN(C2CCOCC2)C3)cccc1-c1cccc(NC(=O)c2nc3c(n2C)CCN(C)C3)c1Cl [Example 29, N-(2-chloro-2′-methyl-3′-(1-methyl-5-(tetrahydro-2H-pyran-4-yl)-4,5,6,7-tetrahydro-1H-imidazo[4,5-c]pyridine-2-carboxamido)biphenyl-3-yl)-1,5-dimethyl-4,5,6,7-tetrahydro-1H-imidazo[4,5-c]pyridine-2-carboxamide] | ≤ 10
8 | Cc1c(NC(=O)c2nc3c(n2C)CCN(CC2CCOCC2)C3)cccc1-c1cccc(NC(=O)c2nc3c(n2C)CCN(C)C3)c1Cl [Example 30, N-(2-chloro-2′-methyl-3′-(1-methyl-5-((tetrahydro-2H-pyran-4-yl)methyl)-4,5,6,7-tetrahydro-1H-imidazo[4,5-c]pyridine-2-carboxamido)biphenyl-3-yl)-1,5-dimethyl-4,5,6,7-tetrahydro-1H-imidazo[4,5-c]pyridine-2-carboxamide] | ≤ 10
9 | Cc1c(NC(=O)c2nc3c(n2C)CCN(CC2(CO)CC2)C3)cccc1-c1cccc(NC(=O)c2nc3c(n2C)CCN(C)C3)c1Cl [Example 31, N-(2′-chloro-3′-(1,5-dimethyl-4,5,6,7-tetrahydro-1H-imidazo[4,5-c]pyridine-2-carboxamido)-2-methylbiphenyl-3-yl)-5-((1-(hydroxymethyl)cyclopropyl)methyl)-1-methyl-4,5,6,7-tetrahydro-1H-imidazo[4,5-c]pyridine-2-carboxamide] | ≤ 10
10 | Cc1c(NC(=O)c2nc3c(n2C)CCN(C[C@H](O)CO)C3)cccc1-c1cccc(NC(=O)c2nc3c(n2C)CCN(C)C3)c1Cl [Example 32, (S)—N-(2′-chloro-3′-(1,5-dimethyl-4,5,6,7-tetrahydro-1H-imidazo[4,5-c]pyridine-2-carboxamido)-2-methylbiphenyl-3-yl)-5-(2,3-dihydroxypropyl)-1-methyl-4,5,6,7-tetrahydro-1H-imidazo[4,5-c]pyridine-2-carboxamide] | ≤ 10
11 | Cc1c(NC(=O)c2nc3c(n2C)CCN(CC(=O)O)C3)cccc1-c1cccc(NC(=O)c2nc3c(n2C)CCN(C)C3)c1Cl [Example 33, 2-(2-(2′-chloro-3′-(1,5-dimethyl-4,5,6,7-tetrahydro-1H-imidazo[4,5-c]pyridine-2-carboxamido)-2-methylbiphenyl-3-ylcarbamoyl)-1-methyl-6,7-dihydro-1H-imidazo[4,5-c]pyridin-5(4H)-yl)acetic Acid] | ≤ 10

Results, then the compound that gave them:

Row | IC50 [nM] | SMILES
12 | ≤ 10 | Cn1c(C(=O)Nc2cccc(-c3cccc(-c4nc5c(o4)CN(C(=O)CN4CC(O)C4)C5)c3Cl)c2Cl)nc2c1CCN(CCC1CCC(C(=O)O)CC1)C2 (centres unmarked) [Compound 170, 4-(2-(2-(2,2′-dichloro-3′-(5-(2-(3-hydroxyazetidin-1-yl)acetyl)-5,6-dihydro-4H-pyrrolo[3,4-d]oxazol-2-yl)biphenyl-3-ylcarbamoyl)-1-methyl-6,7-dihydro-1H-imidazo[4,5-c]pyridin-5(4H)-yl)ethyl)cyclohexane-1-carboxylic acid]
13 | ≤ 10 | Cn1c(C(=O)Nc2cccc(-c3cccc(-c4nc5c(o4)CN(C(=O)CN4CC[C@@H](O)C4)C5)c3Cl)c2Cl)nc2c1CCN(CCC1CCC(C(=O)O)CC1)C2 (stereo partly drawn) [Compound 171, (R)-4-(2-(2-(2,2′-dichloro-3′-(5-(2-(3-hydroxypyrrolidin-1-yl)acetyl)-5,6-dihydro-4H-pyrrolo[3,4-d]oxazol-2-yl)biphenyl-3-ylcarbamoyl)-1-methyl-6,7-dihydro-1H-imidazo[4,5-c]pyridin-5(4H)-yl)ethyl)cyclohexane-1-carboxylic acid]
14 | ≤ 10 | CCN(C)CC(=O)N1Cc2nc(-c3cccc(-c4cccc(NC(=O)c5nc6c(n5C)CCN(C[C@H]5CC[C@H](C(=O)O)CC5)C6)c4Cl)c3Cl)oc2C1 [Compound 172, trans-4-((2-((2,2′-dichloro-3′-(5-(N-ethyl-N-methylglycyl)-5,6-dihydro-4H-pyrrolo[3,4-d]oxazol-2-yl)-[1,1′-biphenyl]-3-yl)carbamoyl)-1-methyl-1,4,6,7-tetrahydro-5H-imidazo[4,5-c]pyridin-5-yl)methyl)cyclohexane-1-carboxylic acid]
15 | ≤ 10 | CCN(C)CC(=O)N1Cc2nc(-c3cccc(-c4cccc(NC(=O)c5nc6c(n5C)CCN(C5CCC(C)(C(=O)O)CC5)C6)c4C)c3C)oc2C1 (centres unmarked) [Compound 173, 4-(2-((3′-(5-(N-ethyl-N-methylglycyl)-5,6-dihydro-4H-pyrrolo[3,4-d]oxazol-2-yl)-2,2′-dimethyl-[1,1′-biphenyl]-3-yl)carbamoyl)-1-methyl-1,4,6,7-tetrahydro-5H-imidazo[4,5-c]pyridin-5-yl)-1-methylcyclohexane-1-carboxylic acid]
16 | ≤ 10 | CCN(C)CCC(=O)N1Cc2nc(-c3cccc(-c4cccc(NC(=O)c5nc6c(n5C)CCN(C5CCC(C)(C(=O)O)CC5)C6)c4Cl)c3Cl)oc2C1 (centres unmarked) [Compound 174, 4-(2-((2,2′-dichloro-3′-(5-(3-(ethyl(methyl)amino)propanoyl)-5,6-dihydro-4H-pyrrolo[3,4-d]oxazol-2-yl)-[1,1′-biphenyl]-3-yl)carbamoyl)-1-methyl-1,4,6,7-tetrahydro-5H-imidazo[4,5-c]pyridin-5-yl)-1-methylcyclohexane-1-carboxylic acid]
17 | ≤ 10 | CCN1CCc2c(nc(C(=O)Nc3cccc(-c4cccc(NC(=O)c5nc6c(n5C)CCN(CC57CCC(C(=O)O)(CC5)C7)C6)c4Cl)c3Cl)n2C)C1 [Compound 176, 4-((2-(2,2′-dichloro-3′-(5-ethyl-1-methyl-4,5,6,7-tetrahydro-1H-imidazo[4,5-c]pyridine-2-carboxamido)biphenyl-3-ylcarbamoyl)-1-methyl-6,7-dihydro-1H-imidazo[4,5-c]pyridin-5(4H)-yl)methyl)bicyclo[2.2.1]heptane-1-carboxylic acid]
